Key:
[1] = tested on: P. aeruginosa pyocyanin production; assay: Pyocyanin assay; type: cell-based, P. aeruginosa PA14; conditions: Pseudomonas aeruginosa, PA14, 16 h, read-out: IC50-value towards pyocyanin production, PA14 in PPGAS medium, 16 h
Experimental: Inhibition of P. aeruginosa pyocyanin production by compounds was determined photometrically as described before.[20] In short, an overnight culture of PA14 in PPGAS medium was washed, diluted in medium to a start OD600 of 0.02, and incubated for 16 h (37° C., 200 rpm, relative humidity 75%) in the presence of test compounds. Then, cultures were extracted with chloroform and re-extracted with 0.2 M HCl. Protonated red colored pyocyanin was determined by measuring OD520 and normalizing to OD600.

PqsR = PqsR (Pseudomonas aeruginosa, UniProt Q9I4X0); assay: E. coli based β-galactosidase reporter gene assay (PqsR inverse agonistic activity); type: cell-based; parameters: expressed in transfected cells; host or cells: Escherichia coli DH5α
Sequence of PqsR (Q9I4X0 whole entry): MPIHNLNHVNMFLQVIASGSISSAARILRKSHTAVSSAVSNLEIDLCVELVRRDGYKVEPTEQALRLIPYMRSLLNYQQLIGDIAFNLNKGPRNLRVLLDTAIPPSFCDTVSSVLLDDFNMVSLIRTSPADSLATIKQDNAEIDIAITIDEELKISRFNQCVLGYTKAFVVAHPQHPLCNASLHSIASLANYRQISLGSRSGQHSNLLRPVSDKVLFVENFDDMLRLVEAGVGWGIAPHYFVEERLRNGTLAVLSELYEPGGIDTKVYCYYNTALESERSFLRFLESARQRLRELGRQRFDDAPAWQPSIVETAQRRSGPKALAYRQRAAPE
Outline: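 E. coli DH5α carrying pEAL08-2 (tac-driven pqsR with pqsA-lacZ) was grown to OD600 0.2 and incubated with 0.001–10 μM compound plus 50 nM PQS for 2.5 h at 37 °C. β-Galactosidase activity was measured by ONPG conversion in permeabilized cells and normalized between the no-PQS and solvent controls. IC50 came from concentration variation.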

[2] = Kinetic Turbidimetric Aqueous Solubility at room temperature for 5 min; type: physicochemical; conditions: PBS buffer, kinetic from dmso stock, 2% DMSO
Experimental: Kinetic Turbidimetric Aqueous Solubility at room temperature for 5 min. Test compound was diluted in PBS buffer to give a range of concentrations (typically 0.4, 2, 4, 20, 40, 100, and 200 μM, final DMSO concentration 2%) and incubated at room temperature for 5 min. Absorbance was measured at a wavelength of 620 nm and the solubility was estimated from the concentration of test compound that produces an increase in absorbance above the vehicle control (i.e., […]). Data was analyzed by fitting a four parameter sigmoidal function to the measured and normalized absorbances and AUC calculation providing access to Log S (decadic logarithm of the solubility).

| SMILES | IC50 [1] [nM] | IC50 (PqsR) [nM] | solubility at 5 min [2] [µM] |
| --- | --- | --- | --- |
| FC(F)(F)c1cc(OCc2nc3cc(Oc4ccccc4)ccc3[nH]2)ccn1 [Compound 177, 5-phenoxy-2-(((2-(trifluoromethyl)pyridin-4-yl)oxy)methyl)-1H-benzo[d]imidazole] | 1000 to 5000 | 251 to 1000 | > 25 |
| CSc1ccc(-n2cc(CNc3ccnc(C(F)(F)F)c3)nn2)cc1Cl [Compound 038, N-((1-(3-Chloro-4-(methylthio)phenyl)-1H-1,2,3-triazol-4-yl)methyl)-2-(trifluoromethyl)pyridin-4-amine] |  | ≤ 50 | > 25 |
| FC(F)(F)c1cc(NCc2cn(-c3ccc(OC4CC4)c(Cl)c3)nn2)ccn1 [Compound 154, N-((1-(3-chloro-4-cyclopropoxyphenyl)-1H-1,2,3-triazol-4-yl)methyl)-2-(trifluoromethyl)pyridin-4-amine] | 251 to 1000 | ≤ 50 | > 10 |
| CC(C)Oc1ccc(-n2cc(CNc3cc(Cl)nc(C(F)(F)F)c3)nn2)cc1Cl [Compound 042, 2-Chloro-N-((1-(3-chloro-4-isopropoxyphenyl)-1H-1,2,3-triazol-4-yl)methyl)-6-(trifluoromethyl)pyridin-4-amine] | ≤ 250 | ≤ 50 | > 10 |
| Fc1cc2nc(CSc3ccnc(C(F)(F)F)c3)[nH]c2cc1Cl [Compound 180, 6-chloro-5-fluoro-2-(((2-(trifluoromethyl)pyridin-4-yl)thio)methyl)-1H-benzo[d]imidazole] | 1000 to 5000 | 251 to 1000 | > 50 |
| FC(F)(F)c1cc(NCc2nnc(-c3ccc(Oc4ccccc4)cc3)[nH]2)ccn1 [Compound 095, N-((5-(4-Phenoxyphenyl)-4H-1,2,4-triazol-3-yl)methyl)-2-(trifluoromethyl)pyridin-4-amine] | 251 to 1000 | 51 to 250 | > 25 |
| Fc1ccc(Oc2ccc3[nH]c(CSc4ccnc(C(F)(F)F)c4)nc3c2)cc1 [Compound 173, 5-(4-fluorophenoxy)-2-(((2-(trifluoromethyl)pyridin-4-yl)thio)methyl)-1H-benzo[d]imidazole] | 251 to 1000 |  | > 25 |
| FC(F)(F)c1cc(SCc2nc3cc(Cl)c(Cl)cc3[nH]2)ccn1 [Compound 119, 5,6-Dichloro-2-(((2-(trifluoromethyl)pyridin-4-yl)thio)methyl)-1H-benzo[d]imidazole] | 1000 to 5000 | 51 to 250 | > 25 |
| FC(F)(F)c1cc(NCc2nc3cc(Oc4ccccc4)ccc3[nH]2)ccn1 [Compound 182, N-((5-phenoxy-1H-benzo[d]imidazol-2-yl)methyl)-2-(trifluoromethyl)pyridin-4-amine] | 251 to 1000 | ≤ 50 | > 50 |
| FC(F)(F)c1cc(SCc2ccc(-c3ccc(Cl)cc3)cn2)ccn1 [Compound 111, 4-(((5-(4-Chlorophenyl)pyridin-2-yl)methyl)thio)-2-(trifluoromethyl)pyridine] |  |  | > 10 |
| Nc1cc(SCc2nc3cc(Cl)c(Cl)cc3[nH]2)nc(C(F)(F)F)n1 [Compound 117, 6-(((5,6-Dichloro-1H-benzo[d]imidazol-2-yl)methyl)thio)-2-(trifluoromethyl)pyrimidin-4-amine] |  | 51 to 250 | > 50 |
| FC(F)(F)c1cc(SCc2cn(-c3cccc(Cl)c3)nn2)ccn1 [Compound 056, 4-(((1-(3-Chlorophenyl)-1H-1,2,3-triazol-4-yl)methyl)thio)-2-(trifluoromethyl)pyridine] |  | 251 to 1000 | > 25 |
| COc1ccc(-c2ccc(CNc3ccnc(C(F)(F)F)c3)nc2)cc1Cl [Compound 104, N-((5-(3-Chloro-4-methoxyphenyl)pyridin-2-yl)methyl)-2-(trifluoromethyl)pyridin-4-amine] | 1000 to 5000 | 51 to 250 | > 10 |
| FC(F)(F)c1cc(NCc2cn(-c3ccc(Oc4cccnc4)cc3)nn2)ccn1 [Compound 033, N-((1-(4-(Pyridin-3-yloxy)phenyl)-1H-1,2,3-triazol-4-yl)methyl)-2-(trifluoromethyl)pyridin-4-amine] |  | ≤ 50 | > 25 |
| FC(F)(F)c1cc(SCc2nc3cc(Sc4ccccc4)ccc3[nH]2)ccn1 [Compound 176, 5-(phenylthio)-2-(((2-(trifluoromethyl)pyridin-4-yl)thio)methyl)-1H-benzo[d]imidazole] | 251 to 1000 | ≤ 50 | > 10 |
| FC(F)(F)c1cc(NCc2cn(-c3ccc(Oc4cccnc4)c(Cl)c3)nn2)ccn1 [Compound 031, N-((1-(3-Chloro-4-(pyridin-3-yloxy)phenyl)-1H-1,2,3-triazol-4-yl)methyl)-2-(trifluoromethyl)pyridin-4-amine] |  |  | > 25 |
| FC(F)(F)c1cc(SCc2ccc(-c3ccc(Cl)nc3)cn2)ccn1 [Compound 112, 6-Chloro-6′-(((2-(trifluoromethyl)pyridin-4-yl)thio)methyl)-3,3′-bipyridine] | 1000 to 5000 | 51 to 250 | > 25 |
| FC(F)(F)c1cc(NCc2nc(-c3ccc(Oc4ccccc4)cc3)cs2)ccn1 [Compound 079, N-((4-(4-Phenoxyphenyl)thiazol-2-yl)methyl)-2-(trifluoromethyl)pyridin-4-amine] |  | 251 to 1000 | > 25 |
| COc1ncc(-c2nc(CNc3ccnc(C(F)(F)F)c3)cs2)cc1Cl [Compound 084, N-((2-(5-Chloro-6-methoxypyridin-3-yl)thiazol-4-yl)methyl)-2-(trifluoromethyl)pyridin-4-amine] |  | 51 to 250 | > 25 |
| FC(F)(F)c1cc(NCc2cn(-c3ccc(OC4CCC4)c(Cl)c3)nn2)ccn1 [Compound 047, N-((1-(3-chloro-4-cyclobutoxyphenyl)-1H-1,2,3-triazol-4-yl)methyl)-2-(trifluoromethyl)pyridin-4-amine] | ≤ 250 | ≤ 50 | > 25 |
| COC(=O)c1ccc(Oc2ccc3[nH]c(CSc4ccnc(C(F)(F)F)c4)nc3c2)cc1 [Compound 179, methyl 4-((2-(((2-(trifluoromethyl)pyridin-4-yl)thio)methyl)-1H-benzo[d]imidazol-5-yl)oxy)benzonate] | 1000 to 5000 | 251 to 1000 | > 10 |
| Nc1cc(SCc2nc3cc(Oc4cccnc4)ccc3[nH]2)nc(C(F)(F)F)n1 [Compound 174, 6-(((5-(pyridin-3-yloxy)-1H-benzo[d]imidazol-2-yl)methyl)thio)-2-(trifluoromethyl)pyrimidin-4-amine] | 251 to 1000 |  | ≥ 100 |
| CC(C)Oc1ccc(-n2cc(CNc3ccnc(C(F)(F)F)c3)nn2)cc1Cl [Compound 036, N-((1-(3-Chloro-4-isopropoxyphenyl)-1H-1,2,3-triazol-4-yl)methyl)-2-(trifluoromethyl)pyridin-4-amine] | ≤ 250 | ≤ 50 | > 25 |
| N#Cc1cc(SCc2nc3cc(Oc4ccccc4)ccc3[nH]2)ccn1 [Compound 175, 4-(((5-phenoxy-1H-benzo[d]imidazol-2-yl)methyl)thio)picolinonitrile] | 251 to 1000 |  | > 25 |
| CC(C)Oc1ccc(-n2cc(CNc3ccnc(C(F)(F)F)c3)nn2)cc1 [Compound 035, N-((1-(4-Isopropoxyphenyl)-1H-1,2,3-triazol-4-yl)methyl)-2-(trifluoromethyl)pyridin-4-amine] |  | ≤ 50 | ≥ 100 |
| FC(F)(F)c1cc(OCc2nc3cc(Cl)c(Cl)cc3[nH]2)ccn1 [Compound 120, 5,6-Dichloro-2-(((2-(trifluoromethyl)pyridin-4-yl)oxy)methyl)-1H-benzo[d]imidazole] |  | 251 to 1000 | > 50 |
| FC(F)(F)c1cc(NCc2cn(-c3ccc(-n4ccc5cccnc54)cc3)nn2)ccn1 [Compound 044, N-((1-(4-(1H-pyrrolo[2,3-b]pyridin-1-yl)phenyl)-1H-1,2,3-triazol-4-yl)methyl)-2-(trifluoromethyl)pyridin-4-amine] |  | ≤ 50 | > 10 |
| COc1ncc(-c2ccc(CNc3ccnc(C(F)(F)F)c3)nc2)cc1Cl [Compound 101, N-((5′-Chloro-6′-methoxy-[3,3′-bipyridin]-6-yl)methyl)-2-(trifluoromethyl)pyridin-4-amine] |  | 51 to 250 | > 25 |
| COc1ccc(-c2ncc(CNc3cc(N)nc(C(F)(F)F)n3)s2)cc1Cl [Compound 070, N^4-((2-(3-chloro-4-methoxyphenyl)thiazol-5-yl)methyl)-2-(trifluoromethyl)-pyrimidine-4,6-diamine] |  |  | > 25 |
| FC(F)(F)c1cc(NCc2cn(-c3ccc(-n4ccc5ccncc54)cc3)nn2)ccn1 [Compound 043, N-((1-(4-(1H-pyrrolo[2,3-c]pyridin-1-yl)phenyl)-1H-1,2,3-triazol-4-yl)methyl)-2-(trifluoromethyl)pyridin-4-amine] |  | ≤ 50 | > 25 |

Source: US11883387B2, “PqsR inverse agonists” (HELMHOLTZ-ZENTRUM FÜR INFEKTIONSFORSCHUNG GMBH, priority 2018, dated 2024)
